Reference: patent US12673961B2 (Agios Pharmaceuticals, Inc., priority 2022, dated 2026)

target: T1, human PAH with the R408W mutation (Homo sapiens, UniProt P00439, R408W); experiment: Cell Based Phenylalanine Flux Assay; conditions: A375 cells expressing human R408W PAH; 24 hrs with compound, then sepiapterin and 13C9,15N-Phenylalanine for 4 hours; 13C-Tyrosine by LC-MS; average where tested multiple times; read-out: AC50;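 further: Ten-point dose curve from 2-fold serial dilutions, run in duplicate at 0.5% DMSO final, tracer step used 20 µM sepiapterin and 800 µM labeled phenylalanine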
T1 construct: expressed in transfected cells
T1 sequence (P00439 1-452 R408W): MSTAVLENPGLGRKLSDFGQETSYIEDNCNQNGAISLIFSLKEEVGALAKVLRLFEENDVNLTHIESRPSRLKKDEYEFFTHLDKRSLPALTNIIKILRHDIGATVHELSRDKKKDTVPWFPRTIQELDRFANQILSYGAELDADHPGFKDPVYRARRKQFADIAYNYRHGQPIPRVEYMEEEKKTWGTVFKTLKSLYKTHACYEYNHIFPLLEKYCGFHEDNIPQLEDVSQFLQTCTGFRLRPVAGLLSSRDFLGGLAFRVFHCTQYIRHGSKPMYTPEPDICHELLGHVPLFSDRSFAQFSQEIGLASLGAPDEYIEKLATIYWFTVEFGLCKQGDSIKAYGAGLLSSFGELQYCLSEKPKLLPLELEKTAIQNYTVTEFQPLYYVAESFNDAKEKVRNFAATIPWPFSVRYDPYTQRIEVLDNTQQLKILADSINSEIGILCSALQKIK
Experimental: Compounds were resuspended in DMSO, and 2-fold serial dilutions were performed to generate a 10-point dose curve. Compounds were added to plated cells in a total volume of 100 μl, and a final DMSO concentration of 0.5%. Each compound was tested in duplicate. Following compound addition, cells were placed in a 5% CO2, 37° C. tissue culture incubator for 24 hrs. […] 20 μM sepiapterin and 800 μM 13C9,15N-Phenylalanine were added. After 4 hours, cell media was removed. An aliquot of 10 μl of cell media was combined with 200 μl of extraction buffer (80% acetonitrile/20% H2O) for each well. Determination of ^13C-Tyrosine concentration was assessed by liquid chromatography mass spectrometry.
Where a compound was tested multiple times, the average value of the tests is reported.

Q: `CCc1cccn2nc([C@@H]3c4nc[nH]c4CCN3C(=O)c3nnc(-c4ccn(C)n4)o3)cc12` [Example 1927, (S)-(4-(4-ethylpyrazolo [1,5-a]pyridin-2-yl)-1,4,6,7-tetrahydro-5H-imidazo[4,5-c]pyridin-5-yl)(5-(1-methyl-1H-pyrazol-3-yl)-1,3,4-oxadiazol-2-yl)methanone] was tested. Which AC50 did it give?
A: < 500 nM

Q: How did the AC50 turn out when `CC(C)c1cccn2nc([C@@H]3c4nc[nH]c4CCN3C(=O)c3nnc(-c4cnn(C(F)F)c4)o3)cc12` [Example 1936, (S)-(5-(1-(difluoromethyl)-1H-pyrazol-4-yl)-1,3,4-oxadiazol-2-yl)(4-(4-isopropylpyrazolo[1,5-a]pyridin-2-yl)-1,4,6,7-tetrahydro-5H-imidazo[4,5-c]pyridin-5-yl)methanone] was run?
A: < 500 nM

Q: For `CC(C)(F)c1nnc(C(=O)N2CCc3[nH]cnc3[C@H]2c2cc3c(Br)cccn3n2)o1` [Example 1938, (S)-(4-(4-bromopyrazolo [1,5-a]pyridin-2-yl)-1,4,6,7-tetrahydro-5H-imidazo [4,5-c]pyridin-5-yl)(5-(2-fluoropropan-2-yl)-1,3,4-oxadiazol-2-yl)methanone], which AC50 is on record?
A: < 500 nM

Q: For `CC(C)(F)c1nnc(C(=O)N2CCc3[nH]cnc3[C@@H]2c2cc3c(Br)cccn3n2)o1` [Example 1939, (R)-(4-(4-bromopyrazolo [1,5-a]pyridin-2-yl)-1,4,6,7-tetrahydro-5H-imidazo [4,5-c]pyridin-5-yl)(5-(2-fluoropropan-2-yl)-1,3,4-oxadiazol-2-yl)methanone], which AC50 is on record?
A: 1000 to 5000 nM

Q: With `Cc1c(-c2nnc(C(=O)N3CCc4[nH]cnc4[C@H]3c3cc4c(C(C)C)cccn4n3)o2)cnn1C` [Example 1948, (S)-(5-(1,5-dimethyl-1H-pyrazol-4-yl)-1,3,4-oxadiazol-2-yl)(4-(4-isopropylpyrazolo [1,5-a]pyridin-2-yl)-1,4,6,7-tetrahydro-5H-imidazo[4,5-c]pyridin-5-yl)methanone] as the molecule, how does the AC50 read?
A: < 500 nM

Q: Which AC50 does the source give for `Cc1c(-c2nnc(C(=O)N3CCc4[nH]cnc4[C@@H]3c3cc4c(C(C)C)cccn4n3)o2)cnn1C` [Example 1949, (R)-(5-(1,5-dimethyl-1H-pyrazol-4-yl)-1,3,4-oxadiazol-2-yl)(4-(4-isopropylpyrazolo [1,5-a]pyridin-2-yl)-1,4,6,7-tetrahydro-5H-imidazo[4,5-c]pyridin-5-yl)methanone] here?
A: 1000 to 5000 nM

Q: Which AC50 does the source give for `Fc1ccc(-c2nnc(N3CCc4[nH]cnc4[C@@H]3c3cc4c(F)cccn4n3)o2)cc1` [Example 1952, (R)-2-(4-fluorophenyl)-5-(4-(4-fluoropyrazolo[1,5-a]pyridin-2-yl)-1,4,6,7-tetrahydro-5H-imidazo[4,5-c]pyridin-5-yl)-1,3,4-oxadiazole] here?
A: > 5000 nM

Q: How did the AC50 turn out when `Fc1ccc(-c2nnc(N3CCc4[nH]cnc4[C@H]3c3cc4c(F)cccn4n3)o2)cc1` [Example 1953, (S)-2-(4-fluorophenyl)-5-(4-(4-fluoropyrazolo[1,5-a]pyridin-2-yl)-1,4,6,7-tetrahydro-5H-imidazo[4,5-c]pyridin-5-yl)-1,3,4-oxadiazole] was run?
A: < 500 nM

Q: Which AC50 does the source give for `Cc1cccn2nc([C@@H]3c4nc[nH]c4CCN3C(=O)c3cnc(C(C)(C)F)o3)cc12` [Example 1959, (S)-(2-(2-fluoropropan-2-yl)oxazol-5-yl)(4-(4-methylpyrazolo[1,5-a]pyridin-2-yl)-1,4,6,7-tetrahydro-5H-imidazo[4,5-c]pyridin-5-yl)methanone] here?
A: < 500 nM

Q: `Cc1cccn2nc([C@H]3c4nc[nH]c4CCN3C(=O)c3cnc(-c4cnn(C)c4C)o3)cc12` [Example 1963, (R)-(2-(1,5-dimethyl-1H-pyrazol-4-yl)oxazol-5-yl)(4-(4-methylpyrazolo[1,5-a]pyridin-2-yl)-1,4,6,7-tetrahydro-5H-imidazo[4,5-c]pyridin-5-yl)methanone] was tested. Which AC50 did it give?
A: > 5000 nM

Q: `O=C(c1nnc(-c2ccccn2)s1)N1CCc2[nH]cnc2[C@H]1c1cc2c(F)cccn2n1` [Example 1968, (S)-(4-(4-fluoropyrazolo [1,5-a]pyridin-2-yl)-1,4,6,7-tetrahydro-5H-imidazo[4,5-c]pyridin-5-yl)(5-(pyridin-2-yl)-1,3,4-thiadiazol-2-yl) methanone] was tested. Which AC50 did it give?
A: < 500 nM

Q: For `O=C(c1nnc(-c2ccccn2)s1)N1CCc2[nH]cnc2[C@@H]1c1cc2c(F)cccn2n1` [Example 1969, (R)-(4-(4-fluoropyrazolo [1,5-a]pyridin-2-yl)-1,4,6,7-tetrahydro-5H-imidazo[4,5-c]pyridin-5-yl)(5-(pyridin-2-yl)-1,3,4-thiadiazol-2-yl) methanone], which AC50 is on record?
A: > 5000 nM

Q: For `Cc1cccn2nc([C@@H]3c4nc[nH]c4CCN3C(=O)c3nnc(-c4ccccn4)s3)cc12` [Example 1970, (S)-(4-(4-methylpyrazolo [1,5-a]pyridin-2-yl)-1,4,6,7-tetrahydro-5H-imidazo[4,5-c]pyridin-5-yl)(5-(pyridin-2-yl)-1,3,4-thiadiazol-2-yl) methanone], which AC50 is on record?
A: < 500 nM

Q: For `Cc1cccn2nc([C@H]3c4nc[nH]c4CCN3C(=O)c3nnc(-c4ccccn4)s3)cc12` [Example 1971, (R)-(4-(4-methylpyrazolo [1,5-a]pyridin-2-yl)-1,4,6,7-tetrahydro-5H-imidazo[4,5-c]pyridin-5-yl)(5-(pyridin-2-yl)-1,3,4-thiadiazol-2-yl) methanone], which AC50 is on record?
A: > 5000 nM

Q: For `CC(C)c1cccn2nc([C@H]3c4nc[nH]c4CCN3C(=O)c3nnc(-c4ccn(C(F)F)n4)o3)cc12` [Example 1982, (R)-(5-(1-(difluoromethyl)-1H-pyrazol-3-yl)-1,3,4-oxadiazol-2-yl)(4-(4-isopropylpyrazolo[1,5-a]pyridin-2-yl)-1,4,6,7-tetrahydro-5H-imidazo[4,5-c]pyridin-5-yl)methanone], which AC50 is on record?
A: > 5000 nM

Q: Which AC50 does the source give for `CC(C)c1cccn2nc([C@@H]3c4nc[nH]c4CCN3C(=O)c3nnc(-c4ccn(C(F)F)n4)o3)cc12` [Example 1983, (S)-(5-(1-(difluoromethyl)-1H-pyrazol-3-yl)-1,3,4-oxadiazol-2-yl)(4-(4-isopropylpyrazolo[1,5-a]pyridin-2-yl)-1,4,6,7-tetrahydro-5H-imidazo[4,5-c]pyridin-5-yl)methanone] here?
A: < 500 nM

Q: For `Cc1cccn2nc([C@H]3c4nc[nH]c4CCN3C(=O)c3nnc(C4CC4)s3)cc12` [Example 1996, (R)-(5-cyclopropyl-1,3,4-thiadiazol-2-yl)(4-(4-methylpyrazolo[1,5-a]pyridin-2-yl)-1,4,6,7-tetrahydro-5H-imidazo[4,5-c]pyridin-5-yl)methanone], which AC50 is on record?
A: 1000 to 5000 nM

Q: How did the AC50 turn out when `O=C(c1ocnc1C1CC1)N1CCc2[nH]cnc2[C@@H]1c1cc2c(C(F)(F)F)cccn2n1` [Example 2015, (R)-(4-cyclopropyloxazol-5-yl)(4-(4-(trifluoromethyl)pyrazolo [1,5-a]pyridin-2-yl)-1,4,6,7-tetrahydro-5H-imidazo[4,5-c]pyridin-5-yl)methanone] was run?
A: 1000 to 5000 nM

Q: With `Cc1cccn2nc([C@H]3c4nc[nH]c4CCN3C(=O)c3nc4ccccc4o3)cc12` [Example 2021, (R)-benzo[d]oxazol-2-yl (4-(4-methylpyrazolo[1,5-a]pyridin-2-yl)-1,4,6,7-tetrahydro-5H-imidazo[4,5-c]pyridin-5-yl)methanone] as the molecule, how does the AC50 read?
A: > 5000 nM

Q: How did the AC50 turn out when `O=C([C@@H]1CC1(F)F)N1CCc2[nH]cnc2[C@H]1c1cc2c(F)cccn2n1` [Example 2030, ((S)-2,2-difluorocyclopropyl) ((S)-4-(4-fluoropyrazolo[1,5-a]pyridin-2-yl)-1,4,6,7-tetrahydro-5H-imidazo[4,5-c]pyridin-5-yl)methanone] was run?
A: < 500 nM

Q: How did the AC50 turn out when `O=C(c1cnc(-c2ccccn2)o1)N1CCc2[nH]cnc2[C@@H]1c1cc2c(C(F)F)cccn2n1` [Example 2035, (R)-(4-(4-(difluoromethyl)pyrazolo[1,5-a]pyridin-2-yl)-1,4,6,7-tetrahydro-5H-imidazo [4,5-c]pyridin-5-yl)(2-(pyridin-2-yl)oxazol-5-yl)methanone] was run?
A: > 5000 nM

Q: How did the AC50 turn out when `O=C(c1ocnc1C1CC1)N1CCc2[nH]cnc2[C@@H]1c1cc2c(C(F)F)cccn2n1` [Example 2038, (R)-(4-cyclopropyloxazol-5-yl)(4-(4-(difluoromethyl)pyrazolo [1,5-a]pyridin-2-yl)-1,4,6,7-tetrahydro-5H-imidazo[4,5-c]pyridin-5-yl)methanone] was run?
A: 1000 to 5000 nM

Q: With `O=C(c1ocnc1C1CC1)N1CCc2[nH]cnc2[C@H]1c1cc2c(C(F)F)cccn2n1` [Example 2039, (S)-(4-cyclopropyloxazol-5-yl)(4-(4-(difluoromethyl)pyrazolo [1,5-a]pyridin-2-yl)-1,4,6,7-tetrahydro-5H-imidazo[4,5-c]pyridin-5-yl)methanone] as the molecule, how does the AC50 read?
A: < 500 nM

Q: Which AC50 does the source give for `O=C(c1ocnc1C1CC1)N1CCc2[nH]cnc2[C@H]1c1cc2c(Cl)cccn2n1` [Example 2040, (S)-(4-(4-chloropyrazolo [1,5-a]pyridin-2-yl)-1,4,6,7-tetrahydro-5H-imidazo [4,5-c]pyridin-5-yl)(4-cyclopropyloxazol-5-yl) methanone] here?
A: < 500 nM

Q: With `O=C(c1nc2ccccc2o1)N1CCc2[nH]cnc2[C@H]1c1cc2c(F)cccn2n1` [Example 2050, (S)-benzo[d]oxazol-2-yl (4-(4-fluoropyrazolo[1,5-a]pyridin-2-yl)-1,4,6,7-tetrahydro-5H-imidazo[4,5-c]pyridin-5-yl)methanone] as the molecule, how does the AC50 read?
A: < 500 nM

Q: `CC(C)(F)c1nnc(C(=O)N2CCc3[nH]cnc3[C@@H]2c2cc3c(C4CC4)cccn3n2)o1` [Example 2060] was tested. Which AC50 did it give?
A: > 5000 nM

Q: Which AC50 does the source give for `Fc1cccc(F)c1-c1nnc(N2CCc3[nH]cnc3[C@@H]2c2cc3c(Cl)cccn3n2)o1` [Example 2062, (R)-2-(4-(4-chloropyrazolo [1,5-a]pyridin-2-yl)-1,4,6,7-tetrahydro-5H-imidazo [4,5-c]pyridin-5-yl)-5-(2,6-difluorophenyl)-1,3,4-oxadiazole] here?
A: > 5000 nM
